Experiments:
Test in all cases: relative viability (nuclei count vs DMSO), 5 days (fraction); higher = more cells survive
Imatinib + Navitoclax = compound: Cc1ccc(NC(=O)c2ccc(CN3CCN(C)CC3)cc2)cc1Nc1nccc(-c2cccnc2)n1 [Imatinib] + CC1(C)CCC(c2ccc(Cl)cc2)=C(CN2CCN(c3ccc(C(=O)NS(=O)(=O)c4ccc(N[C@H](CCN5CCOCC5)CSc5ccccc5)c(S(=O)(=O)C(F)(F)F)c4)cc3)CC2)C1 [Navitoclax] (partner 0.5 µM)
Outline: (§1)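 Medians of duplicate plates are given as relative viability. That measure is the nuclei count in treated wells divided by the count in vehicle wells. Counts were taken on 4× images of lung cancer cell lines in 1536-well plates, 5 days after pin-tool dosing the day after seeding with one drug alone or a fixed anchor-drug dose plus five library-drug doses (not always all listed) in √10 steps.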

Imatinib + Trametinib = compound: Cc1ccc(NC(=O)c2ccc(CN3CCN(C)CC3)cc2)cc1Nc1nccc(-c2cccnc2)n1 [Imatinib] + CC(=O)Nc1cccc(-n2c(=O)n(C3CC3)c(=O)c3c(Nc4ccc(I)cc4F)n(C)c(=O)c(C)c32)c1 [Trametinib] (partner 0.02 µM)
Outline: as §1

Imatinib + AZD7762 = compound: Cc1ccc(NC(=O)c2ccc(CN3CCN(C)CC3)cc2)cc1Nc1nccc(-c2cccnc2)n1 [Imatinib] + NC(=O)Nc1cc(-c2cccc(F)c2)sc1C(=O)N[C@H]1CCCNC1 [AZD7762] (partner 0.2 µM)
Outline: as §1

Imatinib + Pemetrexed = compound: Cc1ccc(NC(=O)c2ccc(CN3CCN(C)CC3)cc2)cc1Nc1nccc(-c2cccnc2)n1 [Imatinib] + Nc1nc2[nH]cc(CCc3ccc(C(=O)N[C@@H](CCC(=O)O)C(=O)O)cc3)c2c(=O)[nH]1 [Pemetrexed] (partner 0.2 µM)
Outline: as §1

Cell Line	relative viability (Imatinib + Navitoclax; first compound 0.02 µM)	relative viability (Imatinib + Navitoclax; first compound 0.2 µM)	relative viability (Imatinib + Navitoclax; first compound 0.6325 µM)	relative viability (Imatinib + Navitoclax; first compound 2 µM)	relative viability (Imatinib + Trametinib; first compound 0.02 µM)	relative viability (Imatinib + Trametinib; first compound 0.06325 µM)	relative viability (Imatinib + Trametinib; first compound 0.2 µM)	relative viability (Imatinib + Trametinib; first compound 0.6325 µM)	relative viability (Imatinib + Trametinib; first compound 2 µM)	relative viability (Imatinib + AZD7762; first compound 0.02 µM)	relative viability (Imatinib + AZD7762; first compound 0.06325 µM)	relative viability (Imatinib + AZD7762; first compound 0.2 µM)	relative viability (Imatinib + AZD7762; first compound 0.6325 µM)	relative viability (Imatinib + AZD7762; first compound 2 µM)	relative viability (Imatinib + Pemetrexed; first compound 0.02 µM)	relative viability (Imatinib + Pemetrexed; first compound 0.06325 µM)	relative viability (Imatinib + Pemetrexed; first compound 0.2 µM)	relative viability (Imatinib + Pemetrexed; first compound 0.6325 µM)	relative viability (Imatinib + Pemetrexed; first compound 2 µM)	relative viability (Imatinib + Navitoclax; first compound 0.06325 µM)
201T	1.24	1.19	1.2	1.18	0.694	0.697	0.738	0.681	0.7	0.72	0.399	0.589	0.541	0.517	0.317	0.24	0.391	0.284	0.31	
A-427	1.05	0.998	0.945	0.949	0.745	0.786	0.757	0.76	0.712	0.812	0.84	0.634	0.654	0.572	1.05	1.08	1.02		0.971	
ABC-1										0.821		0.786		0.726						
BEN	0.0684	0.0665	0.0553	0.0529	1.09	1.02	1.05	1.1	1.1	0.702	0.544	0.681	0.782	0.582	0.832	0.835	0.691	0.89	0.879	0.0589
CAL-12T	1.44	1.21	1.38	0.974	0.336	0.324	0.321	0.411	0.398	0.692	0.724	0.637	0.699		1.35	1.33	1.25	1.32	1.28	1.32
COR-L23	1.11	1.5	1.04	1.03	0.636	0.494	0.72	0.697	0.648						0.196	0.206	0.209	0.196	0.159	1.32
COR-L 105	1.01	0.756	0.743	0.605	0.44	0.495	0.452	0.433	0.419						1.33	1.27	1.13	1.06	0.983	0.879
ChaGo-K-1	1.04		1.37	1.09	0.927		0.833	0.81	0.871	0.979		0.941	0.791	0.943	0.263		0.255	0.268	0.251	0.927
EBC-1	0.398	0.382	0.327	0.379																0.399
EKVX	1.18	0.983	0.929	0.973	0.376		0.295	0.325				0.617	0.723		0.442		0.509	0.391		0.859

From the supplement of paper PMC10307832
